Among the data in patent publication US20140243335A1, “SUBSTITUTED HYDOXAMIC ACIDS AND USES THEREOF” (Millennium Pharmaceuticals, Inc., priority 2010, published 2014) are inhibition values, retold here.

The test addresses T1, purified human HDAC6 (Homo sapiens, UniProt Q9UBN7).
T1 construct: purchased BPS Bioscience 5006
T1 sequence (Q9UBN7 1-1215): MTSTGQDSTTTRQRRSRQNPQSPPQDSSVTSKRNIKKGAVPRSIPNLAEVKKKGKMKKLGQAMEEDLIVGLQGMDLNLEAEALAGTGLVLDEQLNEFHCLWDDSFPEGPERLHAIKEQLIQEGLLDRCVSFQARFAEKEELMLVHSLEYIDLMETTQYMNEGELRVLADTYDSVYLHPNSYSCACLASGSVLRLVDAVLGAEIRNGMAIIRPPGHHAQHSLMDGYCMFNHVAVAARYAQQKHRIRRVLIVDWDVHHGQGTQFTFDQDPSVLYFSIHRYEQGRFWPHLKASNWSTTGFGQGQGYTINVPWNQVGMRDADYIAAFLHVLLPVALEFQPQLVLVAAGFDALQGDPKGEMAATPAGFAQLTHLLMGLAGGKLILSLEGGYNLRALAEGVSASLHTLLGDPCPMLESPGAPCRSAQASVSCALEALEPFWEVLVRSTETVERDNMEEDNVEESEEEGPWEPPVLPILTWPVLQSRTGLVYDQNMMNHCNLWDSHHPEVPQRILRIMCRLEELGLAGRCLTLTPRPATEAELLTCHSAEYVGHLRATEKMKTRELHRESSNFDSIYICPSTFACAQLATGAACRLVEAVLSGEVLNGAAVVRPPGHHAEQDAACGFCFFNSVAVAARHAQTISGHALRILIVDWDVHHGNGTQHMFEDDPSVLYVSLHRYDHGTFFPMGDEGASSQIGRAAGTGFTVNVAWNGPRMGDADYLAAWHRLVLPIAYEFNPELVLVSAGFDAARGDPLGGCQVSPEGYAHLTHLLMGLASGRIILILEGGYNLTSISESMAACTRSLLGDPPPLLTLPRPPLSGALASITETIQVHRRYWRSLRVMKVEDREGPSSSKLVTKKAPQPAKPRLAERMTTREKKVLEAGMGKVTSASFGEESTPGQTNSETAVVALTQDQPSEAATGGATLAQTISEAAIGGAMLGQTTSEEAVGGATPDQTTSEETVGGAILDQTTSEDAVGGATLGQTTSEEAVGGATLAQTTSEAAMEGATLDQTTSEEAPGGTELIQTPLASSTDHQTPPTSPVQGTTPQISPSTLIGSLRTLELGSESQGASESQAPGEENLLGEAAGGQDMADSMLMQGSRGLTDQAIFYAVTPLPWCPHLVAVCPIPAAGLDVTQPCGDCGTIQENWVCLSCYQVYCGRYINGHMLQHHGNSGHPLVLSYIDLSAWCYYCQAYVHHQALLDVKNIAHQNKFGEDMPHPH
As to the kind of experiment: HDAC6 Enzyme Assay. The following applies: HDAC6 inhibition at a compound concentration of 0.412 μM; read-out: Percent Inhibition at 0.412 μM. The class given is biochemical. As to the method: To measure the inhibition of HDAC6 activity, purified human HDAC6 (BPS Bioscience; Cat. No. 5006) is incubated with substrate Ac-Arg-Gly-Lys(Ac)-AMC peptide (Bachem Biosciences; Cat. No. I-1925) for 1 hour at 30° C. in the presence of test compounds or vehicle DMSO control. The reaction is stopped with the HDAC inhibitor trichostatin A (Sigma; Cat. No. T8552) and the amount of Arg-Gly-Lys-AMC generated is quantitated by digestion with trypsin (Sigma; Cat. No. T1426) and subsequent measurement of the amount of AMC released using a fluorescent plate reader (Pherastar; BMG Technologies) set at Ex 340 nm and Em 460 nm. Concentration response curves are generated by calculating the fluorescence increase in test compound-treated samples relative to DMSO-treated controls, and enzyme inhibition (IC50) values are determined from those curves.
Usually inhibition stands for the change of the read-out against control, counted positive when it falls. For `CC(C)(C)OC(=O)N1CCC(NC(=O)c2cc(OC3CCc4cc(C(=O)NO)ccc4C3)ccn2)CC1` (centres unmarked) [Compound I-223, tert-butyl 4-({[4-({6-[(hydroxyamino)carbonyl]-1,2,3,4-tetrahydronaphthalen-2-yl}oxy)pyridin-2-yl]carbonyl}amino)piperidine-1-carboxylate], the inhibition at 0.412 µM was found to be 88%.

As to `Cn1cccc1C(=O)NC1CCCc2cc(C(=O)NO)ccc21` (centres unmarked) [Compound I-18, N-{6-[(hydroxyamino)carbonyl]-1,2,3,4-tetrahydronaphthalen-1-yl}-1-methyl-1H-pyrrole-2-carboxamide], the inhibition at 0.412 µM is 34%.

Regarding `O=C(NO)c1ccc2c(c1)CCC(c1ccccc1C(F)(F)F)C2` (centres unmarked) [Compound I-109, N-hydroxy-6-[2-(trifluoromethyl)phenyl]-5,6,7,8-tetrahydronaphthalene-2-carboxamide], the inhibition at 0.412 µM turned out to be 53%.

For the compound `CC(C)(C)C(=O)NC1CCc2cc(C(=O)NO)ccc2C1` (centres unmarked) [Compound I-111, 6-[(2,2-dimethylpropanoyl)amino]-N-hydroxy-5,6,7,8-tetrahydronaphthalene-2-carboxamide], the inhibition at 0.412 µM came to 75%.

In the case of `O=C(NO)c1ccc2c(c1)C1CCC2N1C(=O)c1sc2ccccc2c1Cl` (centres unmarked) [Compound I-203, 9-[(3-chloro-1-benzothien-2-yl)carbonyl]-N-hydroxy-1,2,3,4-tetrahydro-1,4-epiminonaphthalene-6-carboxamide], the inhibition at 0.412 µM was found to be 53%.

On to `CCc1cc(C(=O)NC2CCCc3cc(C(=O)NO)ccc32)n(C)n1` (centres unmarked) [Compound I-2, 3-ethyl-N-{6-[(hydroxyamino)carbonyl]-1,2,3,4-tetrahydronaphthalen-1-yl}-1-methyl-1H-pyrazole-5-carboxamide], for which the inhibition at 0.412 µM was 35%.

Turning to `O=C(NO)c1ccc2c(c1)C1CCC2N1C(=O)c1cc2ccccc2s1` (centres unmarked) [Compound I-204, 9-(1-benzothien-2-ylcarbonyl)-N-hydroxy-1,2,3,4-tetrahydro-1,4-epiminonaphthalene-6-carboxamide], the inhibition at 0.412 µM turned out to be 23%.

As to `CC(C)C(C(=O)NC1CCCc2cc(C(=O)NO)ccc21)c1ccccc1` (centres unmarked) [Compound I-31, N-hydroxy-5-[(3-methyl-2-phenylbutanoyl)amino]-5,6,7,8-tetrahydronaphthalene-2-carboxamide], the inhibition at 0.412 µM turned out to be 17%.

In the case of `O=C(NO)c1ccc2c(c1)CCCC2NC(=O)C12CC3CC(CC(C3)C1)C2` (centres unmarked) [Compound I-21, N-{6-[(hydroxyamino)carbonyl]-1,2,3,4-tetrahydronaphthalen-1-yl}adamantane-1-carboxamide], the inhibition at 0.412 µM was found to be 20%.

As to `O=C(Nc1ccccc1)NC1CCc2ccc(C(=O)NO)cc2C1` (centres unmarked) [Compound I-94, 7-[(anilinocarbonyl)amino]-N-hydroxy-5,6,7,8-tetrahydronaphthalene-2-carboxamide], the inhibition at 0.412 µM was 96%.

Consider `Cc1oc(S(=O)(=O)N2CCCC2)cc1C(=O)NC1CCCc2cc(C(=O)NO)ccc21` (centres unmarked) [Compound I-22, N-{6-[(hydroxyamino)carbonyl]-1,2,3,4-tetrahydronaphthalen-1-yl}-2-methyl-5-(pyrrolidin-1-ylsulfonyl)-3-furamide], for which the inhibition at 0.412 µM was found to be 28%.

Regarding `O=C(NO)c1ccc2c(c1)CCCC2NC(=O)c1cnc2ccccc2n1` (centres unmarked) [Compound I-9, N-{6-[(hydroxyamino)carbonyl]-1,2,3,4-tetrahydronaphthalen-1-yl}quinoxaline-2-carboxamide], the inhibition at 0.412 µM is 47%.

`CN(C)Cc1cccc(C2CCc3cc(C(=O)NO)ccc3C2)c1` (centres unmarked) [Compound I-183, 6-{3-[(dimethylamino)methyl]phenyl}-N-hydroxy-5,6,7,8-tetrahydronaphthalene-2-carboxamide]: the inhibition at 0.412 µM was 69%.

As to `Cn1cccc1C(=O)N[C@@H]1CCCc2cc(C(=O)NO)ccc21` [Compound I-65, (R)-N-(6-(hydroxycarbamoyl)-1,2,3,4-tetrahydronaphthalen-1-yl)-1-methyl-1H-pyrrole-2-carboxamide], the inhibition at 0.412 µM was found to be 16%.
